Source: ChEMBL document CHEMBL4316596, “Antimicrobial Peptides with High Proteolytic Resistance for Combating Gram-Negative Bacteria” (J Med Chem, 2019)

Key:
Escherichia coli [1] = experiment: Antimicrobial activity against Escherichia coli ATCC 25922 after 24 hrs by NCCLS-protocol based assay; type: functional; settings: ATCC 25922, 24 h
Escherichia coli [2] = experiment: Antimicrobial activity against Escherichia coli UB1005 after 24 hrs by NCCLS-protocol based assay; type: functional; settings: UB1005, 24 h
Escherichia coli [3] = experiment: Antimicrobial activity against Escherichia coli 078 after 24 hrs by NCCLS-protocol based assay; type: functional; settings: Escherichia coli, 078, 24 h
Escherichia coli [4] = experiment: Antimicrobial activity against Escherichia coli K88 after 24 hrs by NCCLS-protocol based assay; type: functional; settings: K88, 24 h
Escherichia coli [5] = experiment: Antimicrobial activity against Escherichia coli K99 after 24 hrs by NCCLS-protocol based assay; type: functional; settings: K99, 24 h
Pseudomonas aeruginosa [6] = experiment: Antimicrobial activity against Pseudomonas aeruginosa ATCC 27853 after 24 hrs by NCCLS-protocol based assay; type: functional; settings: ATCC 27853, 24 h
Pseudomonas aeruginosa [7] = experiment: Antimicrobial activity against Pseudomonas aeruginosa PAO1 after 24 hrs by NCCLS-protocol based assay; type: functional; settings: PAO1, 24 h
Pseudomonas aeruginosa [8] = experiment: Antimicrobial activity against Pseudomonas aeruginosa CICC 21630 clinical isolates after 24 hrs by NCCLS-protocol based assay; type: functional; settings: CICC 21630, 24 h
Pseudomonas aeruginosa [9] = experiment: Antimicrobial activity against Pseudomonas aeruginosa 26305 clinical isolates after 24 hrs by NCCLS-protocol based assay; type: functional; settings: Pseudomonas aeruginosa, 26305, 24 h
Pseudomonas aeruginosa [10] = experiment: Antimicrobial activity against Pseudomonas aeruginosa CICC 21625 clinical isolates after 24 hrs by NCCLS-protocol based assay; type: functional; settings: CICC 21625, 24 h
Pseudomonas aeruginosa [11] = experiment: Antimicrobial activity against Pseudomonas aeruginosa 25349 clinical isolates after 24 hrs by NCCLS-protocol based assay; type: functional; settings: Pseudomonas aeruginosa, 25349, 24 h
Salmonella typhimurium [12] = experiment: Antimicrobial activity against Salmonella typhimurium ATCC 14028 after 24 hrs by NCCLS-protocol based assay; type: functional, Salmonella enterica subsp. enterica serovar Typhimurium; settings: Salmonella enterica, ATCC 14028, 24 h
Salmonella typhimurium [13] = experiment: Antimicrobial activity against Salmonella typhimurium C7731 after 24 hrs by NCCLS-protocol based assay; type: functional, Salmonella enterica subsp. enterica serovar Typhimurium; settings: Salmonella enterica, C7731, 24 h
[14] = Antimicrobial activity against Salmonella pullorum C7913 after 24 hrs by NCCLS-protocol based assay; type: functional, Salmonella enterica subsp. enterica serovar Pullorum; settings: Salmonella enterica, C7913, 24 h
Acinetobacter baumannii [15] = experiment: Antimicrobial activity against Acinetobacter baumannii after 24 hrs by NCCLS-protocol based assay; type: functional
Klebsiella pneumoniae [16] = experiment: Antimicrobial activity against Klebsiella pneumoniae after 24 hrs by NCCLS-protocol based assay; type: functional
Escherichia coli [17] = experiment: Bactericidal activity against Escherichia coli ATCC 25922 incubated for 4 hrs followed by culture spread on agar plates and cultured overnight; type: functional; settings: ATCC 25922, 4 h, read-out: MBC>99.9
Escherichia coli [18] = experiment: Bactericidal activity against Escherichia coli ATCC 25922 incubated for 4 hrs followed by culture spread on agar plates and cultured overnight in presence of NaCl; type: functional; settings: ATCC 25922, 4 h, read-out: MBC>99.9
Escherichia coli [19] = experiment: Bactericidal activity against Escherichia coli ATCC 25922 incubated for 4 hrs followed by culture spread on agar plates and cultured overnight in presence of KCl; type: functional; settings: ATCC 25922, 4 h, read-out: MBC>99.9
Escherichia coli [20] = experiment: Bactericidal activity against Escherichia coli ATCC 25922 incubated for 4 hrs followed by culture spread on agar plates and cultured overnight in presence of CaCl2; type: functional; settings: ATCC 25922, 4 h, read-out: MBC>99.9
Escherichia coli [21] = experiment: Bactericidal activity against Escherichia coli ATCC 25922 incubated for 4 hrs followed by culture spread on agar plates and cultured overnight in presence of ZnCl2; type: functional; settings: ATCC 25922, 4 h, read-out: MBC>99.9
Escherichia coli [22] = experiment: Bactericidal activity against Escherichia coli ATCC 25922 incubated for 4 hrs followed by culture spread on agar plates and cultured overnight in presence of FeCl3; type: functional; settings: ATCC 25922, 4 h, read-out: MBC>99.9
Escherichia coli [23] = experiment: Bactericidal activity against Escherichia coli ATCC 25922 incubated for 4 hrs followed by culture spread on agar plates and cultured overnight in presence of NH4Cl; type: functional; settings: ATCC 25922, 4 h, read-out: MBC>99.9
Escherichia coli [24] = experiment: Bactericidal activity against Escherichia coli ATCC 25922 incubated for 4 hrs followed by culture spread on agar plates and cultured overnight in presence of MgCl2; type: functional; settings: ATCC 25922, 4 h, read-out: MBC>99.9
Escherichia coli [25] = experiment: Bactericidal activity against Escherichia coli ATCC 25922 incubated for 4 hrs followed by culture spread on agar plates and cultured overnight in presence of 50% serum albumin; type: functional; settings: ATCC 25922, 4 h, read-out: MBC>99.9
Escherichia coli [26] = experiment: Bactericidal activity against Escherichia coli ATCC 25922 incubated for 4 hrs followed by culture spread on agar plates and cultured overnight in presence of 25% serum albumin; type: functional; settings: ATCC 25922, 4 h, read-out: MBC>99.9
Escherichia coli [27] = experiment: Bactericidal activity against Escherichia coli ATCC 25922 incubated for 4 hrs followed by culture spread on agar plates and cultured overnight in presence of 12.5% serum albumin; type: functional; settings: ATCC 25922, 4 h, read-out: MBC>99.9
Escherichia coli [28] = experiment: Bactericidal activity against Escherichia coli UB1005 incubated for 4 hrs followed by culture spread on agar plates and cultured overnight; type: functional; settings: UB1005, 4 h, read-out: MBC>99.9
Escherichia coli [29] = experiment: Bactericidal activity against Escherichia coli 078 incubated for 4 hrs followed by culture spread on agar plates and cultured overnight; type: functional; settings: Escherichia coli, 078, 4 h; read-out: MBC>99.9
Escherichia coli [30] = experiment: Bactericidal activity against Escherichia coli K88 incubated for 4 hrs followed by culture spread on agar plates and cultured overnight; type: functional; settings: K88, 4 h, read-out: MBC>99.9
Escherichia coli [31] = experiment: Bactericidal activity against Escherichia coli K99 incubated for 4 hrs followed by culture spread on agar plates and cultured overnight; type: functional; settings: K99, 4 h, read-out: MBC>99.9
Pseudomonas aeruginosa [32] = experiment: Bactericidal activity against Pseudomonas aeruginosa ATCC 27853 incubated for 4 hrs followed by culture spread on agar plates and cultured overnight; type: functional; settings: ATCC 27853, 4 h, read-out: MBC>99.9
Pseudomonas aeruginosa [33] = experiment: Bactericidal activity against Pseudomonas aeruginosa PAO1 incubated for 4 hrs followed by culture spread on agar plates and cultured overnight; type: functional; settings: PAO1, 4 h, read-out: MBC>99.9
Pseudomonas aeruginosa [34] = experiment: Bactericidal activity against Pseudomonas aeruginosa CICC 21630 clinical isolates incubated for 4 hrs followed by culture spread on agar plates and cultured overnight; type: functional; settings: CICC 21630, 4 h, read-out: MBC>99.9
Pseudomonas aeruginosa [35] = experiment: Bactericidal activity against Pseudomonas aeruginosa 26305 clinical isolates incubated for 4 hrs followed by culture spread on agar plates and cultured overnight; type: functional; settings: Pseudomonas aeruginosa, 26305, 4 h; read-out: MBC>99.9
Pseudomonas aeruginosa [36] = experiment: Bactericidal activity against Pseudomonas aeruginosa CICC 21625 clinical isolates incubated for 4 hrs followed by culture spread on agar plates and cultured overnight; type: functional; settings: CICC 21625, 4 h, read-out: MBC>99.9
Pseudomonas aeruginosa [37] = experiment: Bactericidal activity against Pseudomonas aeruginosa 25349 clinical isolates incubated for 4 hrs followed by culture spread on agar plates and cultured overnight; type: functional; settings: Pseudomonas aeruginosa, 25349, 4 h; read-out: MBC>99.9
Salmonella typhimurium [38] = experiment: Bactericidal activity against Salmonella typhimurium ATCC 14028 incubated for 4 hrs followed by culture spread on agar plates and cultured overnight; type: functional, Salmonella enterica subsp. enterica serovar Typhimurium; settings: Salmonella enterica, ATCC 14028, 4 h; read-out: MBC>99.9
Salmonella typhimurium [39] = experiment: Bactericidal activity against Salmonella typhimurium C7731 incubated for 4 hrs followed by culture spread on agar plates and cultured overnight; type: functional, Salmonella enterica subsp. enterica serovar Typhimurium; settings: Salmonella enterica, C7731, 4 h; read-out: MBC>99.9
[40] = Bactericidal activity against Salmonella pullorum C7913 incubated for 4 hrs followed by culture spread on agar plates and cultured overnight; type: functional, Salmonella enterica subsp. enterica serovar Pullorum; settings: Salmonella enterica, C7913, 4 h; read-out: MBC>99.9
Acinetobacter baumannii [41] = experiment: Bactericidal activity against Acinetobacter baumannii incubated for 4 hrs followed by culture spread on agar plates and cultured overnight; type: functional; settings: read-out: MBC>99.9
Klebsiella pneumoniae [42] = experiment: Bactericidal activity against Klebsiella pneumoniae incubated for 4 hrs followed by culture spread on agar plates and cultured overnight; type: functional; settings: read-out: MBC>99.9

- MIC95 (Escherichia coli [1]): 16 µM
- MIC95 (Escherichia coli [2]): 16 µM
- MIC95 (Escherichia coli [3]): 64 µM
- MIC95 (Escherichia coli [4]): 4 µM
- MIC95 (Escherichia coli [5]): 8 µM
- MIC95 (Pseudomonas aeruginosa [6]): > 64 µM
- MIC95 (Pseudomonas aeruginosa [7]): > 64 µM
- MIC95 (Pseudomonas aeruginosa [8]): > 64 µM
- MIC95 (Pseudomonas aeruginosa [9]): > 64 µM
- MIC95 (Pseudomonas aeruginosa [10]): > 64 µM
- MIC95 (Pseudomonas aeruginosa [11]): > 64 µM
- MIC95 (Salmonella typhimurium [12]): 64 µM
- MIC95 (Salmonella typhimurium [13]): > 64 µM
- MIC95 [14]: 64 µM
- MIC95 (Acinetobacter baumannii [15]): 16 µM
- MIC95 (Klebsiella pneumoniae [16]): > 64 µM
Substance: H-IKPIIKPIIKPIIKPIIKPIIKPI-NH2
- MBC (Escherichia coli [17]): 32 µM
- MBC (Escherichia coli [18]): > 128 µM
- MBC (Escherichia coli [19]): > 128 µM
- MBC (Escherichia coli [20]): > 128 µM
- MBC (Escherichia coli [21]): > 128 µM
- MBC (Escherichia coli [22]): > 128 µM
- MBC (Escherichia coli [23]): > 128 µM
- MBC (Escherichia coli [24]): > 128 µM
- MBC (Escherichia coli [25]): > 128 µM
- MBC (Escherichia coli [26]): > 128 µM
- MBC (Escherichia coli [27]): > 128 µM
- MBC (Escherichia coli [28]): 32 µM
- MBC (Escherichia coli [29]): > 64 µM
- MBC (Escherichia coli [30]): 8 µM
- MBC (Escherichia coli [31]): 16 µM
- MBC (Pseudomonas aeruginosa [32]): > 64 µM
- MBC (Pseudomonas aeruginosa [33]): > 64 µM
- MBC (Pseudomonas aeruginosa [34]): > 64 µM
- MBC (Pseudomonas aeruginosa [35]): > 64 µM
- MBC (Pseudomonas aeruginosa [36]): > 64 µM
- MBC (Pseudomonas aeruginosa [37]): > 64 µM
- MBC (Salmonella typhimurium [38]): > 64 µM
- MBC (Salmonella typhimurium [39]): > 64 µM
- MBC [40]: > 64 µM
- MBC (Acinetobacter baumannii [41]): 16 µM
- MBC (Klebsiella pneumoniae [42]): > 64 µM
